Our source for the Ki, IC50 and inhibition values is US20240150293A1, “SPIROCYCLOHEXANE DERIVATIVES, PHARMACEUTICAL COMPOSITIONS CONTAINING THEM AND THEIR USES AS ANTI-APOPTOTIC INHIBITORS” (LES LABORATOIRES SERVIER, priority 2021, published 2024).

Assay [1] deals with Mcl-1 protein (UniProtKB Q07820) (Homo sapiens (Human), UniProt Q07820). The assay can be described thus: Inhibition of Mcl-1 by the fluorescence polarisation assay (Example A, Method A). The note with it: fluorescence polarization assay. In kind it is binding. An outline of the steps:
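Protein (5 nM) and fluorescein-tagged peptide tracer (1 nM) incubated with 11-point compound series for 2 h at room temperature in HEPES/NaCl/Tween 20 buffer, pH 7.4, 5% DMSO. Displacement read as decrease in polarisation; IC50 fitted by 4-parameter logistic, converted to Ki (cKi or eKi).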
(In fluorescence polarisation assays a small probe gives low polarisation when free and higher when bound to something large.)

Assay [2] deals with H929 multiple myeloma tumor line. In words: In vitro cytotoxicity, MTT assay (Example B, Method A). In kind it is cell-based. The note with it: H929 cells, 48 hours exposure, read-out: C50. As to the method:
The cytotoxicity studies were carried out on the H929 multiple myeloma tumor line.
The cells are distributed onto microplates and exposed to the test compounds for 48 hours. The cell viability is then quantified by a colorimetric assay, the Microculture Tetrazolium Assay (Carmichael et al, Cancer Res. 1987, 47, 939-942).
The results are expressed in C50 which means concentration corresponding to […] of effect/inhibition.
(Formazan colour is commonly taken as a measure of viable cells.)

The target of assay [3] is Cy5-labelled Mcl1 (amino acids 171-321) C286S protein (UniProtKB Q07820) (Homo sapiens (Human), UniProt Q07820, C286S). In words: Inhibition of Mcl-1 by the fluorescence quenching assay (Example A, Method B). In kind it is binding. From the text:
Fluorescence quenching assay measures the change fluorescence intensity of C-terminally Cy5-labelled Mcl1 (amino acids 171-321) C286S protein (UniProtKB® primary accession number Q07820) having an amino acid sequence:
which is linked at the C-terminus to the amino acid X which corresponds to a cysteine labelled on the sulfur with sulpho-Cyanine5 from Lumiprobe GmbH catalogue number 13380, upon binding of a C-terminally labelled peptide derived from PUMA (UniProtKB® primary accession number Q9BXH1) having an amino acid sequence:
which is linked at the C-terminus to the amino acid X′, where X′ is cysteine labelled on the sulfur with TQ5WS from AAT Bioquest catalogue number 2079.
The addition of a compound which binds competitively to the same site as the peptide will result in an increase in the fluorescence intensity of the protein due to displacement of the fluorescence quencher.
An 11-point serial dilution of each compound was prepared in DMSO, the final buffer conditions were 10 mM 4-(2-hydroxyethyl)-1-piperazineethanesulfonic acid [HEPES], 150 mM NaCl, 0.05% Tween 20, pH 7.4 and 5% DMSO. The final protein concentration in the assay was 1 nM with the peptide present at 10, 20 or 400 nM. The experiments were incubated for 2 hours at room temperature before fluorescence intensity was measured on a Biotek SynergyNeo plate reader (Excitation 620 nm, emission 680 nm). The dose response curves were plotted with XL-Fit software using a 4-Parameter Logistic Model (Sigmoidal DoseResponse Model) and the inhibitory concentrations that gave a 50% increase in fluorescence intensity was determined (IC50). The Ki values were determined from the IC50 values according to Cer et al, Nucleic Acids Res, 2009, 37 (WebServer issue): W441-W445. Inhibition constants (Ki) are determined from complete binding inhibition curves (cKi) or from estimated from incomplete binding inhibition curves (eKi) in most cases due to low activity.

Like-named read-outs stand apart in the source and are kept apart here.

Mcl-1 protein, sequence (Q07820 whole entry): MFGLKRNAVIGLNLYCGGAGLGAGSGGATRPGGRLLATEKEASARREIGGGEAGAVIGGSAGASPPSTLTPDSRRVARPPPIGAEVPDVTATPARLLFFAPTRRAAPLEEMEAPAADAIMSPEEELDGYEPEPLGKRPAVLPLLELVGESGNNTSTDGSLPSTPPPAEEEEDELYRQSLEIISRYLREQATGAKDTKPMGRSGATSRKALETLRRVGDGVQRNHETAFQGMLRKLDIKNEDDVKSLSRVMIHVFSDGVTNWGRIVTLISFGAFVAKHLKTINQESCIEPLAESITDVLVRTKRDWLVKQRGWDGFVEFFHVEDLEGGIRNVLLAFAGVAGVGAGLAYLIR
Cy5-labelled Mcl1 (amino acids 171-321) C286S protein, sequence (Q07820 171-321 C286S): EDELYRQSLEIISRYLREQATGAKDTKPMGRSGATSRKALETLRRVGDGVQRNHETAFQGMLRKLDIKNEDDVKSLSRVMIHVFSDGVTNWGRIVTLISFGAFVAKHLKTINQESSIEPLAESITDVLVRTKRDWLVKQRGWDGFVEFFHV

In the case of `O=C(O)[C@]1(Nc2cccc(Cl)c2)CC[C@@]2(CC1)c1ccccc1CC2CCCOc1ccnc(F)c1` (mixture of isomers) [Example 427, (1r,4r)-4-(3-chloroanilino)-2′-{3-[(2-fluoropyridin-4-yl)oxy]propyl}-2′,3′-dihydrospiro[cyclohexane-1,1′-indene]-4-carboxylic acid], in assay [1], the Ki was found to be 226 nM. The IC50 in assay [2] (Homo sapiens, NCI-H929, 48 h) came out at 17400 nM. Turning to `O=C(O)[C@]1(Nc2cccc(Cl)c2)CC[C@@]2(CC1)c1ccccc1CC2CCCOc1ncnc2c1CCC2` (mixture of isomers) [Example 459, (1r,4r)-4-(3-chloroanilino)-2′-{3-[(6,7-dihydro-5H-cyclopenta[d]pyrimidin-4-yl)oxy]propyl}-2′,3′-dihydrospiro[cyclohexane-1,1′-indene]-4-carboxylic acid], the Ki in assay [1] worked out at 85.7 nM. For the same compound, the IC50 in assay [2] (Homo sapiens, NCI-H929, 48 h) was found to be 6960 nM. As for `O=C(O)[C@]1(Nc2cccc(Cl)c2)CC[C@@]2(CC1)c1ccccc1CC2CCCOc1ncncc1C1CC1` (mixture of isomers) [Example 465, (1r,4r)-4-(3-chloroanilino)-2′-{3-[(5-cyclopropylpyrimidin-4-yl)oxy]propyl}-2′,3′-dihydrospiro[cyclohexane-1,1′-indene]-4-carboxylic acid], in assay [1], the Ki was 75.4 nM. Besides, in assay [2] (Homo sapiens, NCI-H929, 48 h), the IC50 came to 9600 nM. As to `CC1CCc2nccc(OC[C@H](C)CC3Cc4ccccc4[C@]34CC[C@@](Nc3cccc(Cl)c3)(C(=O)O)CC4)c21` (mixture of isomers) [Example 602, (1r,4R)-4-(3-chloroanilino)-2′-{(2R)-2-methyl-3-[(5-methyl-6,7-dihydro-5H-cyclopenta[b]pyridin-4-yl)oxy]propyl}-2′,3′-dihydrospiro[cyclohexane-1,1′-indene]-4-carboxylic acid], the Ki in assay [1] is 3.37 nM. For the same compound, the IC50 in assay [2] (Homo sapiens, NCI-H929, 48 h) was 518 nM. For `Cc1cccc(C2Cc3ccccc3[C@]23CC[C@@](Nc2cccc(Cl)c2)(C(=O)O)CC3)c1` (single isomer, unassigned) [Example 345, (1r,4r)-4-(3-chloroanilino)-2′-(3-methylphenyl)-2′,3′-dihydrospiro[cyclohexane-1,1′-indene]-4-carboxylic acid] the same measures were 1240 nM and 30000 nM.

For `Cc1cccc(C2Cc3ccccc3[C@]23CC[C@@](Nc2cccc(Cl)c2)(C(=O)O)CC3)c1` (single isomer, unassigned) [Example 346, (1r,4r)-4-(3-chloroanilino)-2′-(3-methylphenyl)-2′,3′-dihydrospiro[cyclohexane-1,1′-indene]-4-carboxylic acid], the inhibition constant (Ki) in assay [1] was 9290 nM. For the same compound, the IC50 in assay [2] is 30000 nM.

In the case of `CC(C)C(COc1ccnc2ccsc12)CC1Cc2ccccc2[C@]12CC[C@@](Nc1cccc(Cl)c1)(C(=O)O)CC2` (single isomer, unassigned) [Example 523, (1r,4r)-4-(3-chloroanilino)-2′-(3-methyl-2-{[(thieno[3,2-b]pyridin-7-yl)oxy]methyl}butyl)-2′,3′-dihydrospiro[cyclohexane-1,1′-indene]-4-carboxylic acid], the IC50 in assay [2] is 16400 nM. With `CC(C)C(COc1ccnc2ccsc12)CC1Cc2ccccc2[C@]12CC[C@@](Nc1cccc(Cl)c1)(C(=O)O)CC2` (single isomer, unassigned) [Example 524, (1r,4r)-4-(3-chloroanilino)-2′-(3-methyl-2-{[(thieno[3,2-b]pyridin-7-yl)oxy]methyl}butyl)-2′,3′-dihydrospiro[cyclohexane-1,1′-indene]-4-carboxylic acid], the IC50 in assay [2] was found to be 30000 nM. On to `CCC1CC(O)c2nccc(OC[C@H](C)C[C@H]3Cc4ccccc4[C@]34CC[C@@](Nc3cccc(Cl)c3)(C(=O)O)CC4)c21` (stereo partly drawn) [Example 624, (1r,2′S,4S)-4-(3-chloroanilino)-2′-{(2R)-3-[(5-ethyl-7-hydroxy-6,7-dihydro-5H-cyclopenta[b]pyridin-4-yl)oxy]-2-methylpropyl}-2′,3′-dihydrospiro[cyclohexane-1,1′-indene]-4-carboxylic acid], for which the IC50 in assay [2] (Homo sapiens, NCI-H929, 48 h) came out at 525 nM. On the same count and under the same terms, for `C[C@@H](COc1cccc2ncsc12)C[C@H]1Cc2ccccc2[C@]12CC[C@@](Nc1cccc(Cl)c1)(C(=O)O)CC2` [Example 625, (1r,2′S,4S)-2′-{(2R)-3-[(1,3-benzothiazol-7-yl)oxy]-2-methylpropyl}-4-(3-chloroanilino)-2′,3′-dihydrospiro[cyclohexane-1,1′-indene]-4-carboxylic acid] the value was 6590 nM. On to `C[C@@H](COc1ccnc2[nH]ccc12)C[C@H]1Cc2ccccc2[C@]12CC[C@@](Nc1cccc(Cl)c1)(C(=O)O)CC2` [Example 626, (1r,2′S,4S)-4-(3-chloroanilino)-2′-{(2R)-2-methyl-3-[(1H-pyrrolo[2,3-b]pyridin-4-yl)oxy]propyl}-2′,3′-dihydrospiro[cyclohexane-1,1′-indene]-4-carboxylic acid], for which the IC50 in assay [2] (Homo sapiens, NCI-H929, 48 h) was found to be 540 nM. For the compound `CC(C)COc1cc2c(cc1Cl)C[C@H](C[C@@H](C)COc1ccnc3c1[C@H](C)CCC3)[C@]21CC[C@](Nc2cccc(Cl)c2)(C(=O)O)CC1` [Example 820, (1r,2′S,4S)-5′-chloro-4-(3-chloroanilino)-2′-[(2R)-2-methyl-3-{[(5R)-5-methyl-5,6,7,8-tetrahydroquinolin-4-yl]oxy}propyl]-6′-(2-methylpropoxy)-2′,3′-dihydrospiro[cyclohexane-1,1′-indene]-4-carboxylic acid], the Ki in assay [3] came to 0.469 nM. As for `COC(=O)[C@]1(Nc2cccc(Cl)c2)CC[C@@]2(CC1)c1cc3c(cc1C[C@@H]2C[C@@H](C)COc1ccnc2c1[C@H](C)CCC2)OCO3` [Example 839, methyl (1r,4S,6′S)-4-(3-chloroanilino)-6′-[(2R)-2-methyl-3-{[(5R)-5-methyl-5,6,7,8-tetrahydroquinolin-4-yl]oxy}propyl]-6′,7′-dihydro-2′H-spiro[cyclohexane-1,5′-indeno[5,6-d][1,3]dioxole]-4-carboxylate], the inhibition at 1 µM in assay [3] (@ 1 μM, read-out: Mcl-1 inhibition, % at a single concentration) came out at 11.1%. In the case of `CC(C)OC(=O)[C@]1(Nc2cccc(Cl)c2)CC[C@@]2(CC1)c1cc3c(cc1C[C@@H]2C[C@@H](C)COc1ccnc2c1[C@H](C)CCC2)OCO3` [Example 931, propan-2-yl (1r,4S,6′S)-4-(3-chloroanilino)-6′-[(2R)-2-methyl-3-{[(5R)-5-methyl-5,6,7,8-tetrahydroquinolin-4-yl]oxy}propyl]-6′,7′-dihydro-2′H-spiro[cyclohexane-1,5′-indeno[5,6-d][1,3]dioxole]-4-carboxylate], the inhibition at 10 µM in assay [3] (@ 10 μM, read-out: Mcl-1 inhibition, % at a single concentration) was found to be 9.5%. With `C[C@@H](COc1ccnc2c1[C@H](C)CCC2)C[C@H]1Cc2cc3c(cc2[C@]12CC[C@@](Nc1cccc(Cl)c1)(C(=O)Oc1ccc4c(c1)CCC4)CC2)OCO3` [Example 937, 2,3-dihydro-1H-inden-5-yl (1r,4S,6′S)-4-(3-chloroanilino)-6′-[(2R)-2-methyl-3-{[(5R)-5-methyl-5,6,7,8-tetrahydroquinolin-4-yl]oxy}propyl]-6′,7′-dihydro-2′H-spiro[cyclohexane-1,5′-indeno[5,6-d][1,3]dioxole]-4-carboxylate], the Ki in assay [3] was 28 nM. The same measure, in the same setting: the same measure for `C[C@@H](COc1ccnc2c1[C@H](C)CCC2)C[C@H]1Cc2cc3c(cc2[C@]12CC[C@@](Nc1cccc(Cl)c1)(C(=O)OCCCS(=O)(=O)O)CC2)OCO3` [Example 953, 3-({(1r,4S,6′S)-4-(3-chloroanilino)-6′-[(2R)-2-methyl-3-{[(5R)-5-methyl-5,6,7,8-tetrahydroquinolin-4-yl]oxy}propyl]-6′,7′-dihydro-2′H-spiro[cyclohexane-1,5′-indeno[5,6-d][1,3]dioxole]-4-carbonyl}oxy)propane-1-sulfonic acid]: 55.6 nM.

For orientation: Ki means the dissociation constant of the complex between target and ligand, obtained from inhibition or displacement.
